Experimental data reported in patent US9200046B2, “Reporter system for high throughput screening of compounds and uses thereof” (priority 2011, dated 2015).
Read-outs that look alike come from different tables or passages of the source.

Target: Nrf2-Keap1 complex (Homo sapiens, UniProt Q14145)
Test: cell-based
Format: cell-based
Details: for activation at 16 µM / activation at 32 µM: 3 h; for activation at 16 µM: read-out: Activation 100 nL; for activation at 32 µM: read-out: Activation 200 nL
[1] = Table 2, 100 nL compound, screen run at 16 and 32 μM, 3 hr
[2] = Table 2, 200 nL compound, screen run at 16 and 32 μM, 3 hr
[3] = Table 1A, 100 nL compound, screen run at 16 and 32 μM, 3 hr
[4] = Table 1A, 200 nL compound, screen run at 16 and 32 μM, 3 hr

Sequence of Nrf2-Keap1 complex (Q14145 whole entry, one chain of several): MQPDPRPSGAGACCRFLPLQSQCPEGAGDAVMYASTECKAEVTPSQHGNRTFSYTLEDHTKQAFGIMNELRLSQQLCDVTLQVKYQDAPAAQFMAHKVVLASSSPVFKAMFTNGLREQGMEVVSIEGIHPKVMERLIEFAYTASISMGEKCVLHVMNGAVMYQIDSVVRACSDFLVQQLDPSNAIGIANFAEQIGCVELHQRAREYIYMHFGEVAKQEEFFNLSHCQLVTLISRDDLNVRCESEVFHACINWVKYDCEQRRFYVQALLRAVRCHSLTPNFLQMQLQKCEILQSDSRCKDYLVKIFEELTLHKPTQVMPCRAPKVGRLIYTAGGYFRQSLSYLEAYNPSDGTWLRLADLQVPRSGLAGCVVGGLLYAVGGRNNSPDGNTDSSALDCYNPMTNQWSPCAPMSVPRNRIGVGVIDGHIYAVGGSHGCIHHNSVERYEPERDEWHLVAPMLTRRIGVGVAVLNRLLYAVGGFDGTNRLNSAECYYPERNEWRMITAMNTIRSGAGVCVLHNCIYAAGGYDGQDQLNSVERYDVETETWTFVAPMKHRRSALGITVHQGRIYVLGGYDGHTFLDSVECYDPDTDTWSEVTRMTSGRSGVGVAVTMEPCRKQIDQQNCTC

| Structure (SMILES) | Activation 100 nL | Activation 200 nL | 100 nL (luminescence) [1] | 200 nL (luminescence) [2] | 100 nL (luminescence) | 200 nL (luminescence) | activation at 16 µM | activation at 32 µM | 100 nL (luminescence) [3] | 200 nL (luminescence) [4] |
| --- | --- | --- | --- | --- | --- | --- | --- | --- | --- | --- |
| COc1ccc(C(=O)c2ccccc2)c(O)c1O | 47% | 37% | 780 | 1212 |  |  |  |  |  |  |
| C[C@]12CCC(=O)C=C1C=C[C@@H]1[C@@H]2CC[C@@]2(C)[C@H]1CC[C@@]21CCC(=O)O1 [CANRENONE, reference compound] |  |  |  |  | 900 | 832 | 25% | 23% |  |  |
| COC(=O)/C=C/C(C)=C\C=C\C(C)=C\C=C\C=C(C)\C=C\C=C(C)\C=C\C(=O)O [BIXIN] |  |  |  |  | 1880 | 3036 | 113% | 113% |  |  |
| O=C(/C=C/C(=O)Oc1ccccc1C(=O)O)Oc1ccccc1C(=O)O [BISSALICYLFUMARATE] |  |  |  |  |  |  | 338% | 156% |  |  |
| O=C1CC(c2ccc(O)cc2)Oc2ccccc21 (stereo not drawn) [4′-HYDROXYFLAVANONE] |  |  | 1752 | 2088 |  |  | 158% | 75% |  |  |
| [H]/N=C(\N/C(=N/[H])NCCCCCCNC(=N)NC(=N)Nc1ccc(Cl)cc1)Nc1ccc(Cl)cc1 [CHLORHEXIDINE, reference compound] | 147% | 67% | 2188 | 1750 |  |  |  |  |  |  |
| CCOP(=S)(OCC)Oc1nc(Cl)c(Cl)cc1Cl [CHLORPYRIFOS] |  |  | 1572 | 1704 |  |  | 90% | 55% |  |  |
| O=C(CCBr)N1CCN(C(=O)CCBr)CC1 [PIPOBROMAN, reference compound] |  |  |  |  | 1976 | 3732 | 79% | 185% |  |  |
| CO/N=C(\C(=O)N[C@@H]1C(=O)N2C(C(=O)O)=C(COC(C)=O)CS[C@H]12)c1csc(N)n1 [CEFOTAXIMESODIUM, reference compound] |  |  | 968 | 488 |  |  | 50% | 7% |  |  |
| COc1c(O)cc2c(-c3ccccc3)cc(=O)oc2c1OC [KUHLMANNIN] |  |  | 596 | 1104 |  |  | 26% | 33% |  |  |
| O=S(=O)(O)CCS [MESNA, reference compound] |  |  |  |  | 952 | 612 | 28% | 18% |  |  |
| C[C@@](Cc1ccc(O)c(O)c1)(NN)C(=O)O [CARBIDOPA, reference compound] |  |  | 2262 | 1900 |  |  | 217% | 67% |  |  |
| CC(C)C1=CC2=CC[C@@H]3[C@](C)(CCC[C@@]3(C)C(=O)O)[C@H]2CC1 [ABIETICACID] |  |  |  |  | 1256 | 1748 | 67% | 57% |  |  |
| COC(=O)[C@H]1[C@H]2C[C@@H]3c4[nH]c5cc(OC)ccc5c4CCN3C[C@H]2C[C@@H](OC(=O)c2cc(OC)c(OC)c(OC)c2)[C@@H]1OC [RESERPINE, reference compound] |  |  | 1120 | 572 |  |  | 36% | 8% |  |  |
| COc1cc([C@@H]2c3cc4c(c(O)c3C[C@H]3COC(=O)[C@@H]32)OCO4)cc(OC)c1OC [beta-PELTATIN] |  |  |  |  |  |  | 62% | 21% | 910 | 836 |
| CC(=O)[O-].CC(=O)[O-].[Cd+2] [CADMIUMACETATE] | 47% | −6% | 992 | 312 |  |  |  |  |  |  |
| COc1ccc2c(c1)[C@@]1(C)CCC(=O)C[C@H]1CC2 [5beta-12-METHOXY-4,4-BISNOR-8,11,13-PODOCARPATRIEN-3-ONE] |  |  |  |  |  |  | 46% | 13% | 768 | 636 |
